According to article PMC10730845, “Endoxifen downregulates AKT phosphorylation through protein kinase C beta 1 inhibition in ERα+ breast cancer” (NPJ Breast Cancer, 2023):
pIC50: −log10 of the molar value.

Assays:
PKC thetha (PKCq) = PKC thetha (PKCq) (Homo sapiens, UniProt Q04759); assay: In vitro kinase assay, PKC thetha; format: biochemical; settings: 10 μM ATP
Description: . The IC50 concentrations of these drugs in inhibiting PKC kinase activity are provided in Supplementary Table 4.
Supplementary Table 4. In vitro kinase assay showing the IC 50 concentration of ENDX and
of the 12 PKC family members.
*: not available due to no inhibition or compound activity that could not be fit to an IC50 curve.
Staurosporine serves as the positive control.
(1 picture or pasted object on this page, not shown here)

[1] = system: AKT phosphorylation (pAKT^Ser473, pAKT^Thr308, p-AKT substrates) in MCF7AC1 cells; assay: Immunoblot of AKT signaling and PARP cleavage, MCF7AC1; format: cell-based, human
Procedure: The ENDX hydrochloride utilized in this study was synthesized in collaboration between Mayo Clinic and National Institute of Health (NIH). Estrogen deprived MCF7AC1 were treated with vehicle control or ENDX (National Cancer Institute) for 24 h. […] For the insulin (Sigma-Aldrich, #I0516) experiments, MCF7AC1 and T47D cells were maintained in serum-free medium for 24 h prior to pretreatment with vehicle control or drugs for 2 h followed by treatment with 100 nM insulin for 1 h.
(§1) Protein lysates were prepared using the RIPA lysis buffer system (ChemCruz #sc-24948) and quantified using the DC^TM Protein Assay reagents (Bio-Rad #5000112). Equal amounts of protein lysates were separated on 10% Criterion gels (Bio-Rad #3450112), transferred to PVDF membranes (Bio-Rad #1620177), blocked in TBST-5% milk and probed with primary antibodies listed in Supplementary Table 5, at the indicated dilutions. Membranes were incubated with HRP-conjugated anti-rabbit (CST #7074) or anti-mouse (CST #7076) secondary antibodies and visualized using chemiluminescent West Pico (Thermo Scientific #34580) or West Femto (Thermo Scientific #34096) reagents and a Li-Cor Odyssey® XF imager. Protein lysates from the MCF7AC1 xenograft model were obtained from a previous study. Quantitation of the protein bands signal intensity was performed using the NIH ImageJ image analysis software (https://imagej.nih.gov/ij///index.html). For the quantitation of the phospho protein levels, we first normalized total protein levels to β-actin loading control and used these values to normalize the phospho protein levels and compared change in protein expression levels relative to vehicle control normalized to 1.0. For the quantitation of total protein levels, we normalized the total protein levels to β-actin and compared change in expression levels relative to vehicle control normalized to 1.0. All blots were processed in parallel and derived from the same experiments. Unprocessed immunoblot images are provided in Supplementary Figs. 9–13.

[2] = system: AKT phosphorylation in T47D cells; assay: Immunoblot of AKT phosphorylation, serum starved T47D; format: cell-based, human; settings: not at 0.01 or 0.10 µM
Procedure: The ENDX hydrochloride utilized in this study was synthesized in collaboration between Mayo Clinic and National Institute of Health (NIH). Estrogen deprived MCF7AC1 were treated with vehicle control or ENDX (National Cancer Institute) for 24 h. For the phorbol 12-myristate 13-acetate (PMA) (LC Laboratories, #P-1680) experiments, MCF7AC1 cells were maintained in serum-free medium for 24 h prior to pretreatment with vehicle or ENDX for 2 h followed by treatment with 20 or 200 nM PMA for 20 min. For the insulin (Sigma-Aldrich, #I0516) experiments, MCF7AC1 and T47D cells were maintained in serum-free medium for 24 h prior to pretreatment with vehicle control or drugs for 2 h followed by treatment with 100 nM insulin for 1 h.
as §1, with “Protein lysates from the MCF7AC1 xenograft model were obtained from a previous study.” left out, “All blots were processed in parallel and derived from the same experiments. Unprocessed immunoblot images are provided in Supplementary Figs. 9–13.” left out

MCF7AC1 xenograft tumors = assay: Immunoblot of MCF7AC1 xenograft tumor lysates after in vivo treatment; parameters: species or system mice; settings: four weeks
Procedure: as §1
Supplementary Figure 2. […]
Supplementary Figure 6. […]
MK-2206 in CSS medium for 24 hours. IB assay of pAKTSer473, AKT, PARP, cleaved PARP and
β-actin. d, MCF7AC1 xenograft protein lysates were treated with the indicated drugs for four
weeks. […]
ANOVA for figs. (a), (b), (g), (h) and (i) and unpaired t test for fig. (e).

[3] = system: ERα+/HER2- metastatic breast cancer; settings: cited from earlier work
[4] = CSS medium, 24 h, not at 0.01 and 0.1 μM

Sequence of PKC thetha (PKCq) (Q04759 whole entry): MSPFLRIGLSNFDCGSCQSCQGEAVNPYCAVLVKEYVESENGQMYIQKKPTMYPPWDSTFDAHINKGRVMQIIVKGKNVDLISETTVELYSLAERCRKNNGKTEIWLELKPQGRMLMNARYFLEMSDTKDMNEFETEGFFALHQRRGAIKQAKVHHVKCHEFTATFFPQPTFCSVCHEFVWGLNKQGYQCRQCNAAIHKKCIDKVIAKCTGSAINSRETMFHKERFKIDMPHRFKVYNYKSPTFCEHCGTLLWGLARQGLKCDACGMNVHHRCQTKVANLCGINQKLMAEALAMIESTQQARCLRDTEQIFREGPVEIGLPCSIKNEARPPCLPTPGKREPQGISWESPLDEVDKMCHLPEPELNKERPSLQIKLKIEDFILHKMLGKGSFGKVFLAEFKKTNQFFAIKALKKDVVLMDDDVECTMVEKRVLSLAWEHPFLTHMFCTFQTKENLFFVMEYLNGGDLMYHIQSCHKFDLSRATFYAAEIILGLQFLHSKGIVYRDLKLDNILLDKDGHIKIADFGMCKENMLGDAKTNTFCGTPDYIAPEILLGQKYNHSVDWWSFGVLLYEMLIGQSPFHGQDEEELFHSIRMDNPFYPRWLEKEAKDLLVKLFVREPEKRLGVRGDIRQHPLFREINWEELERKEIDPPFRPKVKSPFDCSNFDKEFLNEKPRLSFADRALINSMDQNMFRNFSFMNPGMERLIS

Compound: CC/C(=C(\c1ccc(O)cc1)c1ccc(OCCNC)cc1)c1ccccc1 [ENDX, Z-endoxifen]
- pIC50 (PKC thetha (PKCq)): 4.38
- Effect on AKT^Thr308 phosphorylation ([1]; CSS medium, 24 h, 5 µM): did not alter AKT^Thr308 phosphorylation
- Concentration increasing PARP cleavage ([1]; CSS medium, 24 h, 0.01, 0.1 and 5 µM tested): 5 µM
- Effect on AKT^Thr308 phosphorylation ([1]; CSS medium, 24 h, 0.01 and 0.1 µM): stimulated AKT^Thr308 phosphorylation
- Concentration attenuating AKT^Ser473 phosphorylation [1, 4]: 5 µM
- Concentration reducing phosphorylation of AKT substrates [1, 4]: 5 µM
- Effect on insulin-stimulated AKT^Thr308 phosphorylation ([1]; serum starved, 100 nM insulin 1 h, 5 μM): able to block AKT^Thr308 phosphorylation
- Effect on insulin-stimulated phosphorylation of AKT substrates ([1]; serum starved, 2 h pretreatment, 100 nM insulin 1 h, 5 µM): diminished insulin-stimulated phosphorylation of AKT substrates
- Concentration blocking insulin-stimulated AKT^Ser473 phosphorylation ([1]; serum starved, 2 h pretreatment, 100 nM insulin 1 h, not at 0.01 and 0.1 μM): 5 µM
- Effect on PMA-stimulated AKT^Ser473 phosphorylation ([1]; serum starved, 2 h pretreatment, 200 nM PMA 20 min, 5 μM): reduced AKT^Ser473 phosphorylation
- Concentration blocking insulin-stimulated AKT^Ser473 phosphorylation [2]: 5 µM
- Effect on AKT phosphorylated substrates in tumors (MCF7AC1 xenograft tumors; 75 mg/kg): reduced the levels of AKT phosphorylated substrates
- Effect on AKT^Thr308 phosphorylation in tumors (MCF7AC1 xenograft tumors; 75 mg/kg): no appreciable impact on AKT^Thr308 phosphorylation
- Effect on AKT^Ser473 phosphorylation in tumors (MCF7AC1 xenograft tumors; 75 mg/kg, vs control treatment): attenuated AKT^Ser473 phosphorylation
- Dose increasing PARP cleavage in tumors (MCF7AC1 xenograft tumors; not at 25 mg/kg): 75 mg/kg
- PFS hazard ratio (HR) ENDX vs TAM, CDK4/6i naïve patients ([3]; 95% CI 0.22–0.80): 0.42
- PFS hazard ratio (HR) ENDX vs TAM, overall ([3]; 95% CI 0.49–1.22): 0.77
- PFS in CDK4/6 inhibitor naïve patients ([3]; CDK4/6i naïve): 7.2 m
- Progression free survival (PFS) overall ([3]; women with ERα+/HER2- metastatic breast cancer progressed on endocrine therapy): 4.3 m
